Test results as given in patent US5495046A, “Alkoxyphenylalkylamine derivatives” (Taisho Pharmaceutical Co., Ltd., priority 1991, dated 1996).
Structures can show the parent of a compound that is named as a salt. Where two headings read alike, the source gives them in different places.

Tests used:
[1] = molecular target: sigma receptor (Rattus norvegicus, UniProt Q9R0C9); experiment: biochemical; format: binding, rat (male Wistar)
Description: (§1) Receptor Binding Experiment
(§2) As test animals, male Wistar rats were used.
(§3) As a [^3 H]-labeled ligand, (+)[^3 H]3-PPP [3-(3-hydroxyphenyl)-N-n-propylpiperidine] was used for sigma receptor, while (-)[^3 H] sulpiride was used for D2 receptor.
(§4) Binding reactions with the use of these [^3 H]-labeled ligands were performed respectively in accordance with the following methods (1) and (2) described in Molecular Pharmacology, 32, p. 772 (1987) and Journal of Pharmacy and Pharmacology, 32, p. 820 (1987).
(1) (+) [^3 H] 3-PPP binding: A membrane preparation obtained from the whole brain of rat, (+) [^3 H] 3-PPP and a test drug were reacted in a 50 mM Tris hydrochloride buffer (pH 8.0) at 21° C. for 90 minutes.
(§5) After the completion of each reaction, the reaction mixture was filtered under sucking onto a glass filter (GF/B) and the radioactivity of the filter paper was measured with a liquid scintillation spectrometer.
The data obtained by reacting in the presence of 10 μM (+) 3-PPP and 10 μM (-) thiapride were regarded respectively as the nonspecific binding of (+) [^3 H] 3-PPP and (-) [^3 H] sulpiride. Then the difference between the total binding and the nonspecific binding was referred to as the specific binding.

[2] = molecular target: D2 receptor (Rattus norvegicus, UniProt P61169); experiment: Receptor binding experiment: (-)[3H] sulpiride binding; set-up: species or system rat (male Wistar)
Sequence of D2 receptor (Rattus norvegicus, UniProt P61169) (P61169 whole entry): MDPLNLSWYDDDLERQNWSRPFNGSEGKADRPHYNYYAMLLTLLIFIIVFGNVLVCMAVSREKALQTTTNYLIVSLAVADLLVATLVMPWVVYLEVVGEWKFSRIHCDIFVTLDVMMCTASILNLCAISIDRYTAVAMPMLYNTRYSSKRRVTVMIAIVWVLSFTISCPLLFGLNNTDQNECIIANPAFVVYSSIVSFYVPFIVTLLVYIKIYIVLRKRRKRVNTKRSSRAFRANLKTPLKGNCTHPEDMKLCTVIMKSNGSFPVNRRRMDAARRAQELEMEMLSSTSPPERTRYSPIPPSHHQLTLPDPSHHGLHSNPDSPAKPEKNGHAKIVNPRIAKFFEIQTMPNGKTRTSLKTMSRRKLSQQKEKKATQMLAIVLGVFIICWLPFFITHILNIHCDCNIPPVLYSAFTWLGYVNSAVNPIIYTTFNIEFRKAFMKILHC
Description: as §1, §2, §3, §4
(2) (-) [^3 H] sulpiride binding: A membrane preparation obtained from the corpus striatum of rat, (-) [^3 H] sulpiride and a test drug were reacted in a 50 mM Tris hydrochloride buffer (pH 7.7) at 37° C. for 10 minutes.
as §5
The data obtained by reacting in the presence of 10 μM (+) 3-PPP and 10 μM (-) thiapride were regarded respectively as the nonspecific binding of (+) [^3 H] 3-PPP and (-) [^3 H] sulpiride. Then the difference between the total binding and the nonspecific binding was referred to as the specific binding. The [^3 H]-labeled ligand at a definite concentration and the test drug at various concentrations were reacted under the conditions as specified in the above (1) or (2) to thereby give an inhibition curve.

[3] = tested on: (+) SKF 10047-induced abnormal behaviors; experiment: Antagonism against (+) SKF 10047-induced abnormal behaviors; format: in vivo, ICR male mice; details: Mus musculus
Description: Examination on Antagonism Against (+) SKF 10047-induced Abnormal Behaviors
Preparations were formulated by dissolving 10 mg of each test drug in 1 ml of dimethylsulfoxide, diluting with physiological saline to a concentration of […], and further diluting the obtained solution to 0.01 and 0.001 mg/kg (administration dose: 0.1 ml per 10 g body weight of mouse).
The invention compound A, the comparative drug AA and Rimcazole were each orally administered in doses of 0.03, 0.1, 0.3, 1.0, 3.0 and 10.0 mg/kg. Preparations were formulated by suspending in a 5% solution of acacia.
(+) SKF10047 [(+)-N-allylnormetazocine hydrochloride; manufactured by Sigma] was intraperitoneally administered in a dose of 30 mg/kg. The preparation was formulated by dissolving in physiological saline.
As test animals, ICR male mice (Nippon Charles River) aged 4 to 5 weeks were used. Each group had 10 animals.
Each animal was introduced into a transparent acrylic resin cage (24 cm in length×17.5 cm in width×12 cm in height) and allowed to fully adapt to the environment. 35 minutes after the administration of a preparation of a test drug, (+) SKF10047 was administered. […]] were evaluated for 40 minutes at intervals of 5 minutes and the ED25 (mg/kg) was determined.

[4] = tested on: sigma receptor; details: cited from earlier work
[5] = molecular target: D2 receptor; details: value obtained from spiperone binding; European Journal of Pharmacology, 155, p. 345 (1988); cited from earlier work
[6] = (+)[3H]3-PPP, rat whole brain membrane, pH 8.0, 21° C., 90 minutes
[7] = read-out: 50% inhibitory concentration (IC50), D2, (-)[3H] sulpiride, rat corpus striatum membrane, pH 7.7, 37° C., 10 minutes
[8] = read-out: 50% inhibitory concentration (IC50), Sigma, (+)[3H]3-PPP, rat whole brain membrane, pH 8.0, 21° C., 90 minutes
[9] = (-)[3H] sulpiride, rat corpus striatum membrane, pH 7.7, 37° C., 10 minutes
[10] = oral, 35 minutes before (+) SKF10047 30 mg/kg i.p., stereotypy scores for 40 minutes at intervals of 5 minutes, read-out: ED25

Sequence of sigma receptor (Rattus norvegicus, UniProt Q9R0C9) (Q9R0C9 whole entry): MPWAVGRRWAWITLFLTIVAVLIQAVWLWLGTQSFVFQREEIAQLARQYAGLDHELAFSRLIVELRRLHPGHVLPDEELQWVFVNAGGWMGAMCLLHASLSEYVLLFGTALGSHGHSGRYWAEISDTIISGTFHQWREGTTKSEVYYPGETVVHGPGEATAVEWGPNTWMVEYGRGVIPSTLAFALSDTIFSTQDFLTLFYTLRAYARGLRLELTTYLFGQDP

CCCN1CCCC(c2cccc(O)c2)C1 (single isomer, unassigned) [Compound 3-PPP, 3-(3-hydroxyphenyl)-N-n-propylpiperidine, reference compound]
IC50 [1, 6]: 24.3 nM

CCCN(CCC)CCc1cc(Cl)ccc1OCCc1ccccc1.O=C(O)C(=O)O [A, N,N-Di-n-propyl-2-[5-chloro-2-(2-phenylethoxy)phenyl]ethylamine oxalate]
IC50 [2, 7]: 112 nM | ED25 ([3]; po): 0.235 mg/kg | IC50 [1, 8]: 7.21 nM

COc1ccc(CCN(C)C)cc1OCc1ccccc1.Cl [AA, N,N-dimethyl-2-(4-methoxy-3-benzyloxyphenyl)ethylamine hydrochloride, reference compound]
IC50 [2]: 40800 nM | ED25 ([3]; po): 23.6 mg/kg | IC50 [1]: 94.4 nM

CCCN(CCC)CCCc1cc(Cl)ccc1OCCc1ccccc1 [B, N,N-Di-n-propyl-3-[5-chloro-2-(2-phenylethoxy)phenyl]propylamine oxalate]
IC50 [2, 9]: > 1000 nM | IC50 [1, 6]: 28.9 nM

CCCN(CCC)CCCCc1cc(Cl)ccc1OCCc1ccccc1 [C, N,N-Di-n-propyl-4-[5-chloro-2-(2-phenylethoxy)phenyl]butylamine oxalate]
IC50 [1, 6]: 26.4 nM

CCCN(CCC)CCc1ccc(Cl)cc1OCCc1ccccc1 [D, N,N-Di-n-propyl-2-[4-chloro-2-(2-phenylethoxy)phenyl]ethylamine hydrochloride]
IC50 [2]: 1450 nM | IC50 [1, 8]: 17.9 nM

CCCN(CCC)CCc1cc(Br)ccc1OCCc1ccccc1 [E, N,N-Di-n-propyl-2-[5-bromo-2-(2-phenylethoxy)phenyl]ethylamine oxalate]
IC50 [2, 7]: 169 nM | IC50 [1, 8]: 11.1 nM

CCCN(CCC)CCCc1cc(Br)ccc1OCCc1ccccc1 [F, N,N-Di-n-propyl-3-[5-bromo-2-(2-phenylethoxy)phenyl]propylamine oxalate]
IC50 [2, 7]: 438 nM | IC50 [1, 8]: 10.9 nM

CCCN(CCC)CCc1cc(F)ccc1OCCc1ccccc1 [G, N,N-Di-n-propyl-2-[5-fluoro-2-(2-phenylethoxy)phenyl]ethylamine hydrochloride]
IC50 [2]: 1910 nM | IC50 [1]: 13.3 nM

CCCN(CCC)CCc1cccc(F)c1OCCc1ccccc1 [H, N,N-Di-n-propyl-2-[3-fluoro-2-(2-phenylethoxy)phenyl]ethylamine oxalate]
IC50 [2]: 3520 nM | IC50 [1]: 21.6 nM

CCCN(CCC)CCc1ccc(OC)c(OCCc2ccccc2)c1.O=C(O)C(=O)O [I, N,N-Di-n-propyl-2-[4-methoxy-3-(2-phenylethoxy)phenyl]ethylamine oxalate]
IC50 [2]: > 1000 nM | ED25 ([3]; po): 0.0008 mg/kg

CCCN(CCC)CCCc1ccc(OC)c(OCCc2ccccc2)c1.O=C(O)C(=O)O [J, N,N-Di-n-propyl-3-[4-methoxy-3-(2-phenylethoxy)phenyl]propylamine oxalate]
IC50 [2, 7]: 950 nM | ED25 [3, 10]: 0.00263 mg/kg | IC50 [1, 6]: 0.984 nM

CCCN(CCC)CCc1ccc(OC)c(OCCCc2ccccc2)c1 [K, N,N-Di-n-propyl-2-[4-methoxy-3-(3-phenylpropoxy)phenyl]ethylamine oxalate]
IC50 [1, 8]: 4.7 nM

COc1ccc(CCN2CCN(c3ccccc3)CC2)cc1OCCc1ccccc1 [L, N-2-[4-Methoxy-3-(2-phenylethoxy)phenyl]ethyl-N'-phenylpiperazine oxalate]
IC50 [2, 7]: 183 nM | IC50 [1, 8]: 33 nM

CCCN(CCC)CCc1ccc(O)c(OCCc2ccccc2)c1 [M, N,N-Di-n-propyl-2-[4-hydroxy-3-(2-phenylethoxy)phenyl]ethylamine hydrochloride]
IC50 [2]: 2500 nM | IC50 [1, 8]: 3.09 nM

CCCN(CCC)CCc1ccc(OC)c(OCCc2ccc(F)cc2)c1 [N, N,N-Di-n-propyl-2-[4-methoxy-3-[2-(4-fluorophenyl)ethoxy]phenyl]ethylaminehydrochloride]
IC50 [2, 9]: > 10000 nM | IC50 [1]: 1.03 nM

CCCN(CCC)CCc1ccc(OC)c(OCCc2cccc(Cl)c2)c1 [O, N,N-Di-n-propyl-2-[4-methoxy-3-[2-(3-chlorophenyl)ethoxy]phenyl]ethylamineoxalate]
IC50 [2, 9]: 6600 nM | IC50 [1, 8]: 1.49 nM

CCCN(CCC)CCc1ccc(OC)c(OCCc2ccc(OC)cc2)c1 [P, N,N-Di-n-propyl-2-[4-methoxy-3-[2-(4-methoxyphenyl)ethoxy]phenyl]ethylamine oxalate]
IC50 [2]: 4990 nM | IC50 [1]: 1.03 nM

CCCN(CCC)CCc1ccc(OC)c(OCCc2cccs2)c1 [Q, N,N-Di-n-propyl-2-[4-methoxy-3-[2-(2-thienyl)ethoxy]phenyl]ethylamine hydrochloride]
IC50 [2]: > 10000 nM | IC50 [1, 8]: 9.35 nM

CCCN(CCC)CCc1ccc(OCCc2ccccc2)c(OC)c1 [R, N,N-Di-n-propyl-2-[3-methoxy-4-(2-phenylethoxy)phenyl]ethylamine oxalate]
IC50 [2]: > 10000 nM | IC50 [1]: 11.5 nM

C[C@@H]1CN(CCCn2c3ccccc3c3ccccc32)C[C@H](C)N1 [Rimcazole]
affinity and specificity for sigma receptor (in words) ([4]; background art statement): restricted | IC50 ([4]; data of European Journal of Pharmacology, 155, p. 345 (1988)): 1640 nM | ED25 [3, 10]: 37 mg/kg | IC50 [5]: 86000 nM

CCCN(CCCO)CCc1ccc(OC)c(OCCc2ccccc2)c1 [S, N-n-propyl-N-3-hydroxypropyl-2-[4-methoxy-3-(2-phenylethoxy)phenyl]ethylamine oxalate]
IC50 [2, 9]: > 10000 nM | IC50 [1, 6]: 18.5 nM

CCCN(CCC)CCc1cccc(OC)c1OCCc1ccccc1.O=C(O)C(=O)O [T, N,N-Di-n-propyl-2-[3-methoxy-2-(2-phenylethoxy)phenyl]ethylamine oxalate]
IC50 [2]: > 10000 nM | ED25 ([3]; po): 0.0017 mg/kg | IC50 [1, 8]: 2.71 nM

CCCN(CCC)CCCc1cccc(OC)c1OCCc1ccccc1 [U, N,N-Di-n-propyl-3-[3-methoxy-2-(2-phenylethoxy)phenyl]propylamine oxalate]
IC50 [1, 6]: 12.5 nM

CCCN(CCC)CCc1cccc(OC)c1OCCCc1ccccc1 [V, N,N-Di-n-propyl-2-[3-methoxy-2-(3-phenylpropoxy)phenyl]ethylamine oxalate]
IC50 [1]: 1.65 nM

COc1cccc(CCN2CCCC2)c1OCCc1ccccc1 [W, N-2-[3-Methoxy-2-(2-phenylethoxy)phenyl]ethylpyrrolidine oxalate]
IC50 [2]: 5350 nM

CCCN(CCC)CCc1cc(OC)ccc1OCCc1ccccc1 [X, N,N-Di-n-propyl-2-[5-methoxy-2-(2-phenylethoxy)phenyl]ethylamine hydrochloride]
IC50 [2, 7]: 791 nM | IC50 [1, 8]: 7.06 nM

CCCN(CCC)CCc1ccc(OC)cc1OCCc1ccccc1 [Y, N,N-Di-n-propyl-2-[4-methoxy-2-(2-phenylethoxy)phenyl]ethylamine oxalate]
IC50 [2]: 2350 nM | IC50 [1, 8]: 6.6 nM

CCCN(CCC)CCc1ccc(OCCc2ccccc2)cc1OC [Z, N,N-Di-n-propyl-2-[2-methoxy-4-(2-phenylethoxy)phenyl]ethylamine oxalate]
IC50 [2]: 9180 nM | IC50 [1, 8]: 6.83 nM
